In data set [1] the test system is RVFV (MP-12 strain). The data set is described as follows: microbe, parasite or virus in culture. The note with it: Rift Valley fever virus, Vero 76, 120 h, read-out: EC50 (CPE reduction assay).
For data set [2], the system named is RVFV (strain ZH501). Further details: species or system Syrian golden hamsters. The note with it: hamster, in vivo.
For data set [3] the following is noted: hamster, in vivo, ip; cited from earlier work.
The test system of data set [4] is RVFV (MP-12 strain). Put plainly: microbe, parasite or virus in culture. Conditions: Rift Valley fever virus, Vero 76, read-out: EC90 (VYR).
Data set [5] deals with more than 20 different viruses across eight different virus families. Conditions: read-out: in vitro antiviral potency EC50; cited from earlier work.
For data set [6], the system named is RVFV (strain ZH501). Details: species or system Syrian golden hamsters. The note with it: hamster, in vivo. This is another data set of the same source.
Data set [7] concerns RVFV (MP-12 strain).
A short description of the next data set: in vitro. Conditions: African green monkey.
The subject of data set [8] is RVFV (strain ZH501). Further details: species or system Syrian golden hamsters. The note with it: hamster, in vivo, ip.
Data set [9] concerns RVFV. The note with it: in vivo; cited from earlier work.
Data set [10] deals with RVFV. The note with it: cited from earlier work.
The test system of data set [11] is RVFV (MP-12 strain). This is another data set of the same source.
Data set [12] concerns RVFV. Conditions: hamster, in vivo; cited from earlier work.

This is an account of results in publication PMC6035881 (Antiviral Research, 2018).

Structures are written as SMILES. Where “and” joins values, the source holds several entries; their conditions need not be identical. Identical values can stand only once. Some results are limits rather than exact numbers.

As for `Nc1ncnc2c([C@@H]3N[C@H](CO)[C@@H](O)[C@H]3O)c[nH]c12` [Galidesivir], the EC50 in the data set with RVFV (MP-12 strain) [1] is 54 µg/mL and 20.4 µM; in [5], under 50 µM; in the data set with RVFV [10] it was 41.6 µM. In addition, in the data set with RVFV (strain ZH501) [2], the “RVFV in serum, spleen or brain on day 2 p.i.” value is on record as “undetectable”. In the data set on RVFV (strain ZH501) [2], the “animals with detectable viral load in the liver on day 2 p.i.” value is listed as “only a single animal”. Further, the maximum tolerated dose in [3] is recorded as 200 mg/kg/day. Moreover, the EC90 with RVFV (MP-12 strain) [4] is 37 µg/mL and 13.9 µM; in the data set on RVFV [10], 98 µM. In the data set on RVFV (strain ZH501) [6], the “animals surviving the lethal RVFV challenge” value turned out to be 70%. Also, in the data set on RVFV (strain ZH501) [6], the protection from mortality result is recorded as “up to 70%”. In addition, in the data set with RVFV (MP-12 strain) [7], the “SI (CC50/EC90)” value amounted to 7.6. Besides, in “in vitro”, the CC50 is 280 µg/mL and 106 µM. Moreover, the “levels of virus across all tissues and serum, day 2 p.i.” value in the data set on RVFV (strain ZH501) [8] was “undetectable”. Further, in the data set with RVFV [9], the “protection in mouse model of RVFV infection” value is “partial protection”. In the data set with RVFV (MP-12 strain) [11], the “SI (CC50/EC50)” value is 5.2.
With `NC(=O)c1ncn([C@@H]2O[C@H](CO)[C@@H](O)[C@H]2O)n1` [Ribavirin, reference compound], in the data set with RVFV (strain ZH501) [2], the “virus in day 2 serum and tissue samples” value was “devoid of virus”. For the same molecule, the survival in the data set on RVFV (strain ZH501) [6] is recorded as 30%.
Turning to `NC(=O)c1nc(F)c[nH]c1=O` [favipiravir], the “hamsters protected from lethal RVFV challenge” value with RVFV [12] is listed as 70–80%.
